One data set is described as follows: Solubility in PBS. The class given is physicochemical. Put shortly:
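Read-out is the HPLC peak area of the supernatant from ultracentrifuged PBS solution, scaled against a 50 μM peptide DMSO injection; value reported as [(PBS area)/(DMSO area)]*50 uM.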

A further data set can be described thus: CHI Log D procedure. Format: physicochemical. The settings on record: pH 7.4, CHI Log D.
Data set [1] has as its target T1, full-length beta-Catenin (Uniprot ID P35222) (Homo sapiens, UniProt P35222).
T1 construct: 10 nM full-length beta-Catenin (Uniprot ID P35222)
T1 sequence (P35222 1-781): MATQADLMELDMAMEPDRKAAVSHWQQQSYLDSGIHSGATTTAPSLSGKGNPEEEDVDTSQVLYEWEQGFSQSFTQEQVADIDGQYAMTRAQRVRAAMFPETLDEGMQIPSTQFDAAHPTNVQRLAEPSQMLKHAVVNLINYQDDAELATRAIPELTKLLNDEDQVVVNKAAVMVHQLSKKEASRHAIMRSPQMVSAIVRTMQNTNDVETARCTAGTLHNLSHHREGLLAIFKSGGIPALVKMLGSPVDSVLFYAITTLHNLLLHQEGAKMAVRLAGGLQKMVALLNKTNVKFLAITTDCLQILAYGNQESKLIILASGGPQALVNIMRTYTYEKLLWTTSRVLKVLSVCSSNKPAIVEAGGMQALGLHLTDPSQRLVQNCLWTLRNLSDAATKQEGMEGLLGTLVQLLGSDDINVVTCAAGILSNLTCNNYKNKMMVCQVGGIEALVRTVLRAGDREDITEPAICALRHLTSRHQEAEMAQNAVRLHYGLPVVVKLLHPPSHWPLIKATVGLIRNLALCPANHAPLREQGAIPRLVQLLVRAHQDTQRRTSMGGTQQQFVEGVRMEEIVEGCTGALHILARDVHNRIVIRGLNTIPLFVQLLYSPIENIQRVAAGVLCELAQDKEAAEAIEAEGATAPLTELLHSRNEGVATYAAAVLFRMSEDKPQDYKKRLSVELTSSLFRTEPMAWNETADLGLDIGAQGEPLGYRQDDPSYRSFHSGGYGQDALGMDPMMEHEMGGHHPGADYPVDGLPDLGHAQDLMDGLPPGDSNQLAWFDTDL
Put plainly: Fluorescence polarization IC50 (beta-catenin / 5FAM-TCF4 10-53 competition). The class given is binding. The settings on record: read-out: beta-Catenin FP IC50. In general terms: Fluorescence polarisation rises when a labelled molecule tumbles more slowly, as on binding a larger partner.

For data set [2], the target named is T2, beta-catenin/TCF4 engagement (Homo sapiens, UniProt P35222).
T2 construct: expressed in transfected cells; host or cells: HEK293
T2 sequence (P35222 1-781): T1 sequence (P35222 1-781)
Put plainly: Nano-BRET target engagement assay (B-cat-Halo & TCF4-Luc in HEK293 cells). Format: cell-based. The settings on record: read-out: NanoBRET Abs IC50.

The Solubility is the dissolved amount per volume that the medium holds. A lower Solubility goes with little dissolved substance. What is called chromatographic logD is lipophilicity estimated from chromatographic retention. The low end stands for a more hydrophilic compound, the high end for a more lipophilic compound. As usually defined, the IC50 is the concentration that gives 50% inhibition.

≈ marks a conversion by molar mass, not a printed value. Where two headings read alike, the source gives them in different places. Some results are limits rather than exact numbers.

On to `CC(=O)N1CCC[C@]12CC=CCCCC1(CCCC=CCCCOC(=O)N3CC[C@@](C(=O)N[C@@H](Cc4ccccc4Cl)C(=O)N[C@@H](Cc4csc5ccccc45)C(=O)N[C@@H](CCC(N)=O)C(N)=O)(C3)NC(=O)[C@H]([C@@H](C)O)NC(=O)[C@H](Cc3ccccc3)NC(=O)[C@H](C)NC(=O)[C@H](C)NC(=O)[C@H](CC(=O)O)NC(=O)[C@H](CC(=O)O)NC1=O)NC(=O)[C@H](CC(C)(C)C)NC(=O)[C@H](CC(=O)O)NC2=O` (stereo partly drawn) [I-1013, Ac-PL3-Asp-Npg-B5-Asp-Asp-Ala-Ala-Phe-Thr-PyrS2-2C1F-BztA-Gln-NH2], for which the Solubility in the data set “Solubility in PBS” (Solubility (uM)) was 47 µM (≈ 90.9 µg/mL). Also, the chromatographic logD in the data set “CHI Log D procedure” came out at 2.13. The IC50 was 8 nM in data set [1] and 12400 nM in data set [2].

As for `CC(=O)N1CCC[C@]12CC=CCCCC1(CCCC=CCCCOC(=O)N3CC[C@@](C(=O)N[C@@H](Cc4ccccc4Cl)C(=O)N[C@@H](Cc4csc5ccccc45)C(=O)N[C@@H](CCC(N)=O)C(N)=O)(C3)NC(=O)[C@H]([C@@H](C)O)NC(=O)[C@H](Cc3ccccc3)NC(=O)[C@H](C)NC(=O)[C@H](C)NC(=O)[C@H](CC(N)=O)NC(=O)[C@H](CC(=O)O)NC1=O)NC(=O)[C@H](CC(C)(C)C)NC(=O)[C@H](CC(=O)O)NC2=O` (stereo partly drawn) [I-1014, Ac-PL3-Asp-Npg-B5-Asp-Asn-Ala-Ala-Phe-Thr-PyrS2-2C1F-BztA-Gln-NH2], the “Solubility” value in “Solubility in PBS” was determined as 10 µM (≈ 19.3 µg/mL). In “CHI Log D procedure”, the chromatographic logD was determined as 2.38. The IC50 in data set [1] was found to be 19 nM; in data set [2] it was 14300 nM.

For `CC(=O)N1CCC[C@]12CC=CCCCC1(CCCC=CCCCOC(=O)N3CC[C@@](C(=O)N[C@@H](Cc4ccccc4Cl)C(=O)N[C@@H](Cc4csc5ccccc45)C(=O)N[C@@H](CCC(N)=O)C(N)=O)(C3)NC(=O)[C@H](CO)NC(=O)[C@H](Cc3ccccc3)NC(=O)[C@H](C)NC(=O)[C@H](C)NC(=O)[C@H](CC(N)=O)NC(=O)[C@H](CC(=O)O)NC1=O)NC(=O)[C@H](CC(C)(C)C)NC(=O)[C@H](CC(=O)O)NC2=O` (stereo partly drawn) [I-1018, Ac-PL3-Asp-Npg-B5-Asp-Asn-Ala-Ala-Phe-Ser-PyrS2-2C1F-BztA-Gln-NH2], the “Solubility” value in “Solubility in PBS” is 10 µM (≈ 19.2 µg/mL). The compound further returned a chromatographic logD in the data set “CHI Log D procedure” of 2.35. Moreover, the figures for the IC50 in data set [1] and in data set [2] were 26 nM and 25800 nM, respectively.

For `CC(=O)N1CCC[C@]12CC=CCCCC1(CCCC=CCCCOC(=O)N3CC[C@@](C(=O)N[C@@H](Cc4ccccc4F)C(=O)N[C@@H](Cc4csc5ccccc45)C(=O)N[C@@H](CCC(N)=O)C(N)=O)(C3)NC(=O)[C@H]([C@@H](C)O)NC(=O)[C@H](Cc3ccccc3)NC(=O)[C@H](C)NC(=O)[C@H](C)NC(=O)[C@H](CC(=O)O)NC(=O)[C@H](CC(=O)O)NC1=O)NC(=O)[C@H](CC(C)(C)C)NC(=O)[C@H](CC(=O)O)NC2=O` (stereo partly drawn) [I-1021, Ac-PL3-Asp-Npg-B5-Asp-Asp-Ala-Ala-Phe-Thr-PyrS2-2FF-BztA-Gln-NH2], the Solubility in “Solubility in PBS” (Solubility (uM)) amounted to 44 µM (≈ 84.4 µg/mL). For the same compound, in “CHI Log D procedure”, the chromatographic logD worked out at 2.05. The IC50 in data set [1] was found to be 5 nM; in data set [2] (absolute IC50) it was 11500 nM.

In the data set “Solubility in PBS” (Solubility (uM)), `CC(=O)N1CCC[C@]12CC=CCCCC1(CCCC=CCCCOC(=O)N3CC[C@@](C(=O)N[C@@H](Cc4ccccc4F)C(=O)N[C@@H](Cc4csc5ccccc45)C(=O)N[C@@H](CCC(N)=O)C(N)=O)(C3)NC(=O)[C@H]([C@@H](C)O)NC(=O)[C@H](Cc3ccccc3)NC(=O)[C@H](C)NC(=O)[C@H](C)NC(=O)[C@H](CC(N)=O)NC(=O)[C@H](CC(=O)O)NC1=O)NC(=O)[C@H](CC(C)(C)C)NC(=O)[C@H](CC(=O)O)NC2=O` (stereo partly drawn) [I-1022, Ac-PL3-Asp-Npg-B5-Asp-Asn-Ala-Ala-Phe-Thr-PyrS2-2FF-BztA-Gln-NH2] had a Solubility of 20 µM (≈ 38.3 µg/mL). The chromatographic logD in “CHI Log D procedure” was 2.29. Further, the half-inhibitory concentration (IC50) came out at 33 nM in data set [1] and 13700 nM in data set [2].

For the compound `CC(=O)N1CCC[C@]12CC=CCCCC1(CCCC=CCCCOC(=O)N3CC[C@@](C(=O)N[C@@H](Cc4ccccc4F)C(=O)N[C@@H](Cc4csc5ccccc45)C(=O)N[C@@H](CO)C(N)=O)(C3)NC(=O)[C@H]([C@@H](C)O)NC(=O)[C@H](Cc3ccccc3)NC(=O)[C@H](C)NC(=O)[C@H](C)NC(=O)[C@H](CC(=O)O)NC(=O)[C@H](CC(=O)O)NC1=O)NC(=O)[C@H](CC(C)(C)C)NC(=O)[C@H](CC(=O)O)NC2=O` (stereo partly drawn) [I-1023, Ac-PL3-Asp-Npg-B5-Asp-Asp-Ala-Ala-Phe-Thr-PyrS2-2FF-BztA-Ser-NH2], in “Solubility in PBS” (Solubility (uM)), the Solubility was 46 µM (≈ 86.3 µg/mL). In addition, in “CHI Log D procedure”, the chromatographic logD came to 2.17. For the same compound, the IC50 was 10 nM in data set [1] and 15000 nM in data set [2].

`CC(=O)N1CCC[C@]12CC=CCCCC1(CCCC=CCCCOC(=O)N3CC[C@@](C(=O)N[C@@H](Cc4ccccc4Cl)C(=O)N[C@@H](Cc4csc5ccccc45)C(=O)N[C@@H](C(N)=O)[C@H](C)O)(C3)NC(=O)[C@H](CC(N)=O)NC(=O)[C@H](Cc3ccccc3)NC(=O)[C@H](C)NC(=O)[C@H](C)NC(=O)[C@H](CCC(=O)O)NC(=O)[C@H](CC(=O)O)NC1=O)NC(=O)[C@H](CC(C)(C)C)NC(=O)[C@H](CC(=O)O)NC2=O` (stereo partly drawn) [I-1031, Ac-PL3-Asp-Npg-B5-Asp-Glu-Ala-Ala-Phe-Asn-PyrS2-2C1F-BztA-dThr-NH2] had a Solubility in the data set “Solubility in PBS” (Solubility (uM)) of 47 µM (≈ 90.9 µg/mL). The chromatographic logD in “CHI Log D procedure” came out at 2.42. Also, the 50% inhibitory concentration (IC50) was determined as 11 nM in data set [1] and 8800 nM in data set [2] (absolute IC50).

With `CC(=O)N1CCC[C@]12CC=CCCCC1(CCCC=CCCCOC(=O)N3CC[C@@](C(=O)N[C@@H](Cc4ccccc4Cl)C(=O)N[C@@H](Cc4csc5ccccc45)C(=O)N[C@@H](C(N)=O)[C@H](C)O)(C3)NC(=O)[C@H](CO)NC(=O)[C@H](Cc3ccccc3)NC(=O)[C@H](C)NC(=O)[C@H](C)NC(=O)[C@H](CC(=O)O)NC(=O)[C@H](CC(=O)O)NC1=O)NC(=O)[C@H](CC(C)(C)C)NC(=O)[C@H](CC(=O)O)NC2=O` (stereo partly drawn) [I-1032, Ac-PL3-Asp-Npg-B5-Asp-Asp-Ala-Ala-Phe-Ser-PyrS2-2C1F-BztA-dThr-NH2], the Solubility in the data set “Solubility in PBS” (Solubility (uM)) turned out to be 44 µM (≈ 83.3 µg/mL). The chromatographic logD in the data set “CHI Log D procedure” is 2.43. The figures for the IC50 in data set [1] and in data set [2] were 15 nM and 10400 nM, respectively.

Compound `CC(=O)N1CCC[C@]12CC=CCCCC1(CCCC=CCCCOC(=O)N3CC[C@@](C(=O)N[C@@H](Cc4ccccc4Cl)C(=O)N[C@@H](Cc4csc5ccccc45)C(=O)N[C@@H](C(N)=O)[C@H](C)O)(C3)NC(=O)[C@H]([C@@H](C)O)NC(=O)[C@H](Cc3ccccc3)NC(=O)[C@H](C)NC(=O)[C@H](C)NC(=O)[C@H](CC(=O)O)NC(=O)[C@H](CC(=O)O)NC1=O)NC(=O)[C@H](CC(C)(C)C)NC(=O)[C@H](CC(=O)O)NC2=O` (stereo partly drawn) [I-1033, Ac-PL3-Asp-Npg-B5-Asp-Asp-Ala-Ala-Phe-Thr-PyrS2-2ClF-BztA-dThr-NH2] displayed a Solubility in “Solubility in PBS” (Solubility (uM)) of 34 µM (≈ 64.8 µg/mL). The compound further returned a chromatographic logD in “CHI Log D procedure” of 2.5. Further, the IC50 is 10 nM in data set [1] and 8600 nM in data set [2].

Consider `CC(=O)N1CCC[C@]12CC=CCCCC1(CCCC=CCCCOC(=O)N3CC[C@@](C(=O)N[C@@H](Cc4ccccc4Cl)C(=O)N[C@@H](Cc4csc5ccccc45)C(=O)N[C@@H](CCC(N)=O)C(N)=O)(C3)NC(=O)[C@H](CC(N)=O)NC(=O)[C@H](Cc3ccccc3)NC(=O)[C@H](C)NC(=O)[C@H](C)NC(=O)[C@H](CC(=O)O)NC(=O)[C@H](CC(=O)O)NC1=O)NC(=O)[C@H](CC1CCCCC1)NC(=O)[C@H](CC(=O)O)NC2=O` (stereo partly drawn) [I-1040, Ac-PL3-Asp-Cha-B5-Asp-Asp-Ala-Ala-Phe-Asn-PyrS2-2C1F-BztA-Gln-NH2], for which the “Solubility” value in “Solubility in PBS” stood at 50 µM (≈ 98.6 µg/mL). The compound also showed a chromatographic logD in “CHI Log D procedure” of 2.27. Further, the figures for the IC50 in data set [1] and in data set [2] (absolute IC50) were 8 nM and 9300 nM, respectively.

Turning to `CC(=O)N1CCC[C@]12CC=CCCCC1(CCCC=CCCCOC(=O)N3CC[C@@](C(=O)N[C@@H](Cc4ccccc4Cl)C(=O)N[C@@H](Cc4csc5ccccc45)C(=O)N[C@@H](CCC(N)=O)C(N)=O)(C3)NC(=O)[C@H](CC(N)=O)NC(=O)[C@H](Cc3ccccc3)NC(=O)[C@H](C)NC(=O)[C@H](C)NC(=O)[C@H](CC(=O)O)NC(=O)[C@H](CC(=O)O)NC1=O)NC(=O)[C@H](Cc1ccccc1)NC(=O)[C@H](CC(=O)O)NC2=O` (stereo partly drawn) [I-1041, Ac-PL3-Asp-Phe-B5-Asp-Asp-Ala-Ala-Phe-Asn-PyrS2-2C1F-BztA-Gln-NH2], in “Solubility in PBS”, the “Solubility” value was 50 µM (≈ 98.3 µg/mL). In “CHI Log D procedure”, this compound gave a chromatographic logD of 2.08. The IC50 in data set [1] is 8 nM; in data set [2] (absolute IC50) it was > 20000 nM.
